Laboratory results published in publication PMC6458983 (Cancer Chemotherapy and Pharmacology, 2019).
Where two headings read alike, the source gives them in different places.

Tests used:
[1] = sustained elevation of gastric pH; cited from earlier work
[2] = cited from earlier work
[3] = Predicted gefitinib exposure (empirical Bayesian estimates), inter- and intra-patient comparison with/without ILD; assay type: in vivo, Japanese patients with NSCLC; conditions: human, plasma, oral, 250 mg
Method: (§1) When estimating the exposure at first dosing and at steady state, time-dependent pharmacokinetics were not assumed. Thus, both exposures at first dosing and steady state can be theoretically derived if at least one plasma concentration at either first dosing or steady state is available. Individual exposures were predicted based on patients’ dosing history, assuming steady state at 144 h after the first dosing. […] Serum concentration of AGP were likewise determined at first dosing and at steady state.
AUC0–24 and Cmax were chosen as exposure metrics.

[4] = Population pharmacokinetic analysis of gefitinib plasma concentrations (NONMEM, one-compartment model); assay type: in vivo, Japanese patients with NSCLC
Method: Six blood samples were taken from each patient at 1–3, 3–8, and 24 h after first treatment dosing (Day 1) and at steady state (Days 10–15). In addition, blood samples were taken from each patient with ILD, if possible, when ILD developed. […] In total, data for 1891 plasma concentrations taken from 336 patients were used for population pharmacokinetic modeling.
as §1
The population pharmacokinetic analysis was performed using the non-linear mixed-effect modeling (NONMEM) program version V level 1.1 with the PREDPP library and the NM-TRAN pre-processor (GloboMax LLC, Hanover, MD, USA). Full details of the population pharmacokinetic model development and analysis are described in the Online Resource.
The population pharmacokinetic analysis was performed using the NONMEM program version V level 1.1 with the PREDPP library and the NM-TRAN pre-processor (GloboMax LLC, Hanover, MD).
Following preliminary modeling to build a base model, log-transformed plasma concentrations were used for the analysis, and a one-compartment model after first-order absorption with lag-time was selected as the structural model. The first-order method was adopted as an approximation in integral of marginal likelihood. The inter-individual variability on pharmacokinetic parameters was described using an exponential error model, and the intra-individual variability on log-transformed plasma concentration was described using an additive error model.
The covariate model was developed based on the forward addition method and the backward deletion method. Continuous covariates such as body weight, age, sex, α1-acid glycoprotein (AGP), serum albumin, total protein, aspartate aminotransferase, alanine aminotransferase, alkaline phosphatase, total bilirubin, and creatinine clearance were tested using a power model centered on the mean value.
Categorical covariates included were age group (<65 years or ≥65 years), concomitant use of cytochrome P450 3A4 (CYP3A4) inducers, concomitant use of CYP3A4 inhibitors, and concomitant use of proton pump inhibitors and/or H2 antagonists. In addition, interstitial lung disease (ILD) status (i.e. “patients with ILD” vs “patients without ILD”) and ILD period (i.e. “at times other than ILD development” vs “at the time of ILD development”) were tested using a productive multiplicative model with the discrete variable (0 or 1).
χ^2 tests with one degree of freedom based on the objective function value (OFV) in NONMEM, which corresponds to -2-fold of log-likelihood, were used for developing the covariate model, and the adopted statistically significant levels were p=0.05 (ΔOFV=3.84) and p=0.001 (ΔOFV=10.83) when a covariate was included and excluded from the pharmacokinetic model, respectively.
Goodness-of-fit plots were used for diagnosis of the final model. The robustness of the final model was evaluated by a randomized non-stratified bootstrap technique with 200 resampling datasets, and model predictability was examined by visual predictive check.

[5] = system: Japanese patients with NSCLC
Method: Area under the plasma concentration–time curve from 0 to 24 h (AUC0–24) and maximum plasma concentrations (Cmax) were calculated using empirical Bayesian estimates of pharmacokinetic parameters in the final population pharmacokinetic model. AUC0–24 and Cmax were chosen as exposure metrics. The incidence of ILD was summarized for four exposure levels, defined using exposure quartiles after a single dose and at steady state, respectively.
After a single dose, predicted pharmacokinetic values were available for all 51 patients with ILD and all 285 patients without ILD. […] Each pharmacokinetic parameter was quartiled separately.

human AGP = conditions: cited from earlier work
[6] = system: Japanese patients with NSCLC; test: Multivariate logistic regression of ILD with gefitinib exposure and other risk factors; assay type: in vivo; conditions: Analysis 1 (PK parameter AUC0–24, single dose)
Method: Patients with and without ILD, in whom pharmacokinetic measurements were available, were included in this analysis. […] A multivariate logistic regression model was used in this analysis; the analysis was performed using SAS version 9.3. […] In addition, the interaction of smoking history and normal lung coverage, and the interaction of the severity of pre-existing ILD and normal lung coverage were also studied. In addition, pharmacokinetic exposure parameters were divided into four quartiles (see “Results”) and investigated as risk factors. For association with ILD risk, the mid-1, mid-2, and high-exposure groups were compared with the low-exposure group.

[7] = after a single dose, third-quartile cut-off of predicted exposure

## COc1cc2ncnc(Nc3ccc(F)c(Cl)c3)c2cc1OCCCN1CCOCC1 [gefitinib]
[1]
  decrease of bioavailability: 47%
[2]; gefitinib 250 mg in the presence of itraconazole
  increase of AUC of gefitinib: 78%
[2]; gefitinib 500 mg in the presence of itraconazole
  increase of AUC of gefitinib: 61%
[3]; after the first dosing, patients with ILD, value printed in box plot Fig. 1a, read-out: Cmax
  Cmax: 214 ng/mL
[3]; after the first dosing, patients without ILD, value printed in box plot Fig. 1a, read-out: Cmax
  Cmax: 157 ng/mL
[3]; after the first dosing, patients with ILD, Fig. 1b, read-out: AUC0-24
  AUC(0-t): 3970 ng·h/mL
[3]; after the first dosing, patients without ILD, Fig. 1b, read-out: AUC0-24
  AUC(0-t): 2990 ng·h/mL
[3]; intra-patient (n = 19), at the time of ILD development, Fig. 2a, read-out: Cmax
  Cmax: 679 ng/mL
[3]; intra-patient (n = 19), at the time of ILD development, Fig. 2b, read-out: AUC0-24
  AUC(0-t): 13600 ng·h/mL
[3]; intra-patient (n = 19), at time other than ILD development (steady state), Fig. 2a, read-out: Cmax
  Cmax: 517 ng/mL
[3]; intra-patient (n = 19), at time other than ILD development (steady state), Fig. 2b, read-out: AUC0-24
  AUC(0-t): 10100 ng·h/mL
[3]; steady state, 250 mg once daily, patients without ILD, Fig. 1d, read-out: Cmax,ss
  Cmax: 434 ng/mL
[3]; steady state, patients with ILD, Fig. 1e, read-out: AUC0-24,SS
  AUC(0-t): 10600 ng·h/mL
[3]; steady state, patients with ILD, Fig. 1d, read-out: Cmax,ss
  Cmax: 517 ng/mL
[3]; steady state, patients without ILD, Fig. 1e, read-out: AUC0-24,SS
  AUC(0-t): 8830 ng·h/mL
[4]; at the time of ILD development, population pharmacokinetic analysis
  decrease of CL/F: 25.7%
[4]; base in CL/F equation (AGE ≥ 65 term, CL/F declined in elderly)
  θ3: 0.759
[4]; base in CL/F equation (PERI, at the time of ILD diagnosis)
  θ6: 0.743
[4]; exponent in CL/F equation (body weight term)
  θ5: 0.503
[4]; typical value term of the CL/F equation (equation is drawing C00001), population estimate
  θ1: 28.6
[4]; typical value term of the V/F equation (equation is drawing C00002), population estimate
  θ7: 1540
[5]; after a single dose, AUC0–24 Quartile 1
  Proportion of patients with ILD, by AUC quartile: 11.9%
[5]; after a single dose, AUC0–24 Quartile 2
  Proportion of patients with ILD, by AUC quartile: 8.3%
[5]; after a single dose, AUC0–24 Quartile 3
  Proportion of patients with ILD, by AUC quartile: 8.3%
[5]; after a single dose, AUC0–24 Quartile 4
  Proportion of patients with ILD, by AUC quartile: 32.1%
[5]; after a single dose, Cmax Quartile 1
  Proportion of patients with ILD, by Cmax quartile: 11.9%
[5]; after a single dose, Cmax Quartile 2
  Proportion of patients with ILD, by Cmax quartile: 8.3%
[5]; after a single dose, Cmax Quartile 3
  Proportion of patients with ILD, by Cmax quartile: 9.5%
[5]; after a single dose, Cmax Quartile 4
  Proportion of patients with ILD, by Cmax quartile: 31.0%
[5]; [7]
  AUC0–24 lower than or equal to the third quartile: ≤ 3855 ng·h/mL
  Cmax lower than or equal to the third quartile: ≤ 207 ng/mL
[5]; at steady state, AUC0–24,ss Quartile 1
  Proportion of patients with ILD, by AUC quartile: 5.1%
[5]; at steady state, AUC0–24,ss Quartile 2
  Proportion of patients with ILD, by AUC quartile: 7.8%
[5]; at steady state, AUC0–24,ss Quartile 3
  Proportion of patients with ILD, by AUC quartile: 15.4%
[5]; at steady state, AUC0–24,ss Quartile 4
  Proportion of patients with ILD, by AUC quartile: 14.3%
[5]; at steady state, Cmax,ss Quartile 1
  Proportion of patients with ILD, by Cmax quartile: 6.4%
[5]; at steady state, Cmax,ss Quartile 2
  Proportion of patients with ILD, by Cmax quartile: 6.5%
[5]; at steady state, Cmax,ss Quartile 3
  Proportion of patients with ILD, by Cmax quartile: 17.9%
[5]; at steady state, Cmax,ss Quartile 4
  Proportion of patients with ILD, by Cmax quartile: 11.7%
Human AGP; at 0.05 mg/mL
  binding to human AGP: 83.0%
Human AGP; at 8 mg/mL
  binding to human AGP: 68.5%
[6]
  OR estimate (95% CI) for acute ILD: Duration of NSCLC ≥1 vs <0.5 years: 0.37 (0.14–0.95)
  OR estimate (95% CI) for acute ILD: Interaction of pre-existing IP and normal lung coverage: 0.37 (0.02–6.82)
